From patent US20110077230A1, “COPPER ORGANOCOMPLEXES, USE THEREOF AS ANTITUMOR MEANS AND FOR PROTECTING HEALTHY TISSUE FROM IONIZING RADIATION” (CHARITE - UNIVERSITATSMEDIZIN BERLIN, priority 2008, published 2011)

What was measured:
[1] = test system: hematopoietic cells in the spleen; experiment: Radioprotective effect in irradiated mice; assay type: in vivo, white mice; settings: 6 Gray; 5 mg/kg two hours prior to and three days after irradiation; day 9
Procedure: White mice of no particular race were irradiated with a sublethal dose of 6 Gray. […] The animals were sacrificed on day 9 after irradiation, and the number of hematopoietic cells in the spleen was determined. No hematopoietic cells were detected in the spleen of untreated animals.

melanoma B 16 = experiment: B 16 melanoma in mice, intraabdominal administration; assay type: in vivo, mice of the line C 57Bl; settings: for Average volume of tumor / Average weight of tumor: days 3, 5, 7, 9
Procedure: The melanoma B 16 was implanted in 20 mice of the line C 57Bl by subcutaneous injection into the right thigh. The animals were divided into four groups of five mice each. Group I received complex A at a dosage of 7 mg/kg, dissolved in DMSO, which was administered intraabdominally in a 4% suspension in physiological saline. Each administration was performed 3, 5, 7 and 9 days after trans-plantation of the tumor.
Group II was treated as group I, but using a dosage of 5 mg/kg.
Group III was treated as group I, but received 5 mg/kg of melphalan hydrochloride instead of complex A.
Group IV remained untreated.

[2] = test system: human mammary gland tumor cells, T4N2M0 stage; experiment: In vitro effect on human mammary gland tumor cells, Experiment 2; assay type: cell-based
Procedure: Tumor cells were collected from the surgical material of female patients suffering from mammary carcinoma at two different stages. The tumor tissue was added with sterile 0.25% trypsin solution and centrifuged repeatedly in RPMI-1640 nutrient medium for 15 minutes at 1500 revolutions per minute. The amount of resulting cells was counted and the suspension of tumor cells divided into five equal groups. The RPMI-1640 nutrient medium was added with 12% fetal calf serum. The cells were incubated for 48 h at 37° C. in a 5% CO2 stream.
The preparations were dissolved in 4% DMSO and physiological saline and acidified with HCl.
Two experiments were performed using cancer cells derived from tumors of different stages. To differentiate the various stages of cancer, the TNM classification is used internationally which takes into account the tumor size (T), lymph node affection (N=nodal status) and the extent of metastasis (M).
(T3: large tumor spreading into the tissue surrounding the breast; N2: metastases up to 9 axillary lymph nodes, M0: no distant metastases). A suspension including 40 million cells was added with 50 μl of each preparation.
The 5 groups with cancer cells received the following:
After subjecting the preparations to flow incubation for 60 minutes, trypan blue stained cells were produced, and dead cells and apoptosis could be determined; dead cells and apoptotic cells were determined in specific units of time and morphological findings.

[3] = test system: primary lymphoblasts from ALL patients; experiment: Ex vivo induction of apoptosis in primary lymphoblasts; assay type: cell-based, human; settings: concentration in LC50 range of NALM-6, 60 hours, cells resistant to daunorubicin and doxorubicin
Procedure: Thereafter, the cells were incubated for 60 hours at 37° C. and 5% CO2, subsequently stained with propidium iodide and quantified using flow cytometry in an FACS.

[4] = test system: colon adenocarcinoma tumor (AKATOL); experiment: Transplanted colon adenocarcinoma (AKATOL), intraabdominal injection; assay type: in vivo, mice of the BALB line; set-up: Average weight: unit not given here; settings: for Average volume of tumor: day 21
Procedure: A suspension of tumor cells was injected into the thighs of 15 mice of the BALB line. The animals received the complex A preparation at a dose of 5 mg/kg 4, 6, 8 and 11 days after implantation.
Group I received the preparation dissolved in DMSO and dispersed in a 4% suspension in physiological saline.
Group II received the preparation in Tween 60.
Group III remained untreated.
(§1) On day 21 of the experiment the animals were sacrificed and examined.

[5] = test system: colon adenocarcinoma tumor (AKATOL); experiment: Transplanted colon adenocarcinoma (AKATOL), peroral administration; assay type: in vivo, mice of the BALB line; settings: for Average weight of tumor: days 3 to 10, day 21
Procedure: Tumor cells were transplanted in mice of the BALB line by injection into the thighs. 3 of 4 groups received the respective preparation on the peroral route 3, 4, 5, 6, 7, 8, 9 and 10 days after tumor implantation.
Group I: 10 mg/kg complex A suspended in olive oil.
Group II: 5 mg/kg complex A suspended in olive oil.
Group III: 10 mg/kg sarcolysine suspended in olive oil.
as §1

lymphoma cells (BJAB) = experiment: Combined administration of complex A and cytarabine, DNA fragmentation; assay type: cell-based, human; settings: 48 hours
Procedure: Incubation was performed for 48 hours at 37° C. and 5% CO2, carrying along zero and solvent controls. DNA fragmentation is determined by flow cytometry after staining the cells with propidium iodide.

thymocytes = experiment: Cytosolic calcium (chlortetracycline fluorescence) in thymocytes; assay type: cell-based, rats of the Wistar line; settings: depending on the dose
Procedure: The Ehrlich ascites carcinoma (EAC) was obtained from white male mice of the strain MNR1 and the thymocytes from the thymus of rats of the Wistar line. Vitality of the cells was tested by vital staining using trypan blue and experiments and determined to be no less than 95% in all experiments. The NADH state in the EAC cells was assessed with reference to their fluorescence intensity. Measurement of the intracellular calcium concentration was performed according to the standard methodology of fluorescence using chlortetracycline. The membrane potential was measured using the fluorescent dye No. 1104. NADH is a source of electrons in the oxidative phosphorylation process. […] These effects are directed to inhibiting the NAD-dependent dehydrogenase. As a result, the respiratory chain in the tumor cells is inhibited.
The concentration of intracellular calcium is a trigger for a number of intracellular processes (FIG. 17c, 17d).

neutrophils = experiment: Antioxidant properties: ROS formation in neutrophils; assay type: cell-based, male mice of the NMRI line; settings: triggered by PMA and fMLF, depending on the dosage
Description: The complexes A and C show a pronounced effect as antioxidant in an environment having an excess of reactive oxygen species (ROS). Thus, ROS formation in neutrophils obtained from male mice of the NMRI line was triggered by two activators: phorbol 12-myristate 13-acetate (PMA) and N-formyl-methionyl-leucylphenylalanine (fMLF).

[6] = Group I: 5 mg/kg in DMSO/physiological saline

Substance: Copper-sarcolysine hydrochloride complex [complex A]
- number of colonies of hematopoietic cells in the spleen [1]: about 40 colonies
- Apoptotic index AI (melanoma B 16; 5 mg/kg intraabdominally): 3.68 ‰
- Bone marrow index MI BM (melanoma B 16; 5 mg/kg intraabdominally): 3.975 ‰
- Inhibition of tumor growth, mass percent (melanoma B 16; 5 mg/kg intraabdominally): mass percent 84.44%
- Inhibition of tumor growth, volume percent (melanoma B 16; 5 mg/kg intraabdominally): volume percent 80.00%
- Mitotic index of tumor cells MI (melanoma B 16; 5 mg/kg intraabdominally): 2.175 ‰
- Average volume of tumor (melanoma B 16; 5 mg/kg intraabdominally): 0.436 cm^3
- Average weight of tumor (melanoma B 16; 5 mg/kg intraabdominally): 202.25 mg
- Apoptotic index AI (melanoma B 16; 7 mg/kg intraabdominally): 4.25 ‰
- Bone marrow index MI BM (melanoma B 16; 7 mg/kg intraabdominally): 3.575 ‰
- Inhibition of tumor growth, mass percent (melanoma B 16; 7 mg/kg intraabdominally): mass percent 89.5%
- Inhibition of tumor growth, volume percent (melanoma B 16; 7 mg/kg intraabdominally): volume percent 98.67%
- Mitotic index of tumor cells MI (melanoma B 16; 7 mg/kg intraabdominally): 1.3. ‰
- Average volume of tumor (melanoma B 16; 7 mg/kg intraabdominally): 0.029 cm^3
- Average weight of tumor (melanoma B 16; 7 mg/kg intraabdominally): 136.8 mg
- Living cells, % ([2]; Experiment 2, T4N2M0): 18.0 ± 1.71%
- Dead cells, % ([2]; Experiment 2, T4N2M0, 40 million cells, 50 μl of preparation): 82.0 ± 1.78%
- induction of apoptosis in lymphoblasts [3]: about 26%
- Average volume of tumor ([4]; Group I: 5 mg/kg in DMSO, 4% suspension in physiological saline): 1.315 cm^3
- % inhibition, mass percent [4, 6]: 60.4%
- % inhibition, volume percent [4, 6]: 87.1%
- Average weight [4, 6]: 1.25
- % inhibition, mass percent ([4]; Group II: 5 mg/kg in Tween 60): 95.85%
- % inhibition, volume percent ([4]; Group II: 5 mg/kg in Tween 60): 97.8%
- Average weight ([4]; Group II: 5 mg/kg in Tween 60): 0.25
- Average volume of tumor ([4]; Group II: 5 mg/kg in Tween 60): 0.217 cm^3
- % inhibition ([5]; 5 mg/kg peroral in olive oil): 68%
- Average weight of tumor ([5]; 5 mg/kg peroral in olive oil): 1.04 g
- % inhibition ([5]; 10 mg/kg peroral in olive oil): 81.5%
- Average weight of tumor ([5]; 10 mg/kg peroral in olive oil): 0.71 g
- synergy effect with cytarabine, induction of apoptosis (lymphoma cells (BJAB)): 129%
- concentration of cytosolic calcium (thymocytes): increase
- formation of ROS in neutrophils (neutrophils): reduce or completely suppress
